Laboratory results from patent US20040167092A1, “Medicaments” (priority 2001, published 2004).

Key:
Type in all cases: in vivo
[1] = tested on: cisplatin-induced emesis; assay: Cisplatin-induced emesis in the conscious ferret; conditions: cisplatin 200 mg m-2 i.p., 1 mg kg-1 s.c. after first emetic episode, n=2
Description: For all the experiments. adult male ferrets, body weight range 1-1.5 kg, were used. Emesis was induced by X-irradiation, morphine and cisplatin. The ferrets were weighted and measured for the calculation of body surface area on the day before the experiment. On the day of the experiment each ferret received an intraperitoneal dose of cisplatin (200 mg m^−2).

[2] = tested on: morphine-induced emesis; assay: Morphine-induced emesis in the conscious ferret; conditions: morphine 0.5 mg kg-1 s.c., 1 mg kg-1 s.c. 15 minutes before morphine, n=2
[3] = tested on: radiation-induced emesis; assay: Radiation-induced (X-irradiation) emesis in the conscious ferret; conditions: for anti-emetic effect with DPCPX, animals affected (in words): two animals; for effect on radiation-induced emesis (in words): s.c. immediately after X-irradiation, conscious ferret
Excerpt: The effects of a number of A1 agonists (including N-(3-fluoro4-hydroxy-phenyl)-5′-O-methyl-adenosine and N-(4-hydroxy-phenyl)-5′-O-methyl-adenosine) and an antagonist, 1,3-dipropyl-8-cyclopentylxanthine (DPCPX), were investigated for anti-emetic action against radiaton-induced emesis in the conscious ferret. In addition DPCPX was used in an attempt to block the anti- emetic effects of the partial agonist, N-(3-fluoro-4hydroxy-phenyl)-5′-O-methyl-adenosine, the structure of which is indicated below. [drawing 4]
For all the experiments. adult male ferrets, body weight range 1-1.5 kg, were used. Emesis was induced by X-irradiation, morphine and cisplatin.
The ferrets were weighed on the day before the experiment. On the day of the experiment each ferret received 2Gy (200 Rad) whole body X-irradiation, administered over a 5 minute period. The A1 receptor agonists, partial agonists or antagonist were administered via the subcutaneous route immediatelv after X-irradiation (i.e. approximately 25 minutes before the onset of emesis). When investigating the effects of the A1 receptor antagonist, DPCPX, on the partial agonist N-(3-fluoro4-hydroxy-phenyl)-5′-O-methyl-adenosine, either both compounds were administered simultaneously immediately after X-irradiation, or the DPCPX was given as a 15 minute pre-treatment.

SMILES | % inhibition of retching ([1]; 1h) | % inhibition of retching ([1]; 2h) | % inhibition of retching ([1]; 7h) | % inhibition of retching ([2]; 1h) | % inhibition of retching ([2]; 2h) | % inhibition of retching ([3]; 2Gy whole body X-irradiation, 1.0 mg kg-1 s.c. immediately after irradiation, observed 2 hours, n=2) | anti-emetic effect with DPCPX, animals affected (in words) ([3]; DPCPX 3 mg kg-1 s.c., 15 minute pre-treatment) | anti-emetic effect with DPCPX, animals affected (in words) ([3]; DPCPX 1 mgkg-1 s.c. administered simultaneously) | reversal of the anti-emetic effect by the A1 receptor antagonist DPCPX (in words) ([3]; X-irradiation, addition of DPCPX) | effect on radiation-induced emesis (in words) [3]
COC[C@H]1O[C@@H](n2cnc3c(Nc4ccc(O)c(F)c4)ncnc32)[C@H](O)[C@@H]1O [N-(3-fluoro-4-hydroxyphenyl)-5′-O-methyl-adenosine] | 100% | 67% | 43% | 100% | 100% | 100% | anti-emetic effect in both animals was reduced | anti-emetic effect in only one of the two animals tested was reduced | partially reversed | completely inhibited emesis
COC[C@H]1O[C@@H](n2cnc3c(Nc4ccc(O)cc4)ncnc32)[C@H](O)[C@@H]1O [N-(4-hydroxyphenyl)-5′-O-methyl-adenosine] | – | – | – | – | – | – | – | – | – | completely inhibited emesis
